In ChEMBL document CHEMBL1122370 (J Med Chem, 1983):

Columns and labels:
L1210 [1] = assay: In vivo antitumor activity against L1210 leukemia in 5 mice measured as Increased life span at 40 mg/kg.; assay type: functional; conditions: Mus musculus
Mus musculus [2] = assay: Average weight of the mouse after treating with 80 mg/kg dose for 7 days.; assay type: functional; design: unit not given beside the values
Mus musculus [3] = assay: Average weight of the mouse after treating with 40 mg/kg dose for 7 days.; assay type: functional; design: unit not given beside the values
Mus musculus [4] = assay: Average weight of the mouse after treating with 20 mg/kg dose for 7 days.; assay type: functional; design: unit not given beside the values
L1210 [5] = assay: In vivo antitumor activity against L1210 leukemia in 5 mice measured as median survival range at 40 mg/kg; Value ranges from(13-19).; assay type: functional, Mus musculus
Mus musculus [6] = assay: Average weight of the mouse after treating with 20 mg/kg dose for 1 day.; assay type: functional; design: unit not given here
L1210 [7] = assay: In vivo antitumor activity against L1210 leukemia in 5 mice measured as median survival range at 80 mg/kg; Value ranges from(13-26).; assay type: functional, Mus musculus
L1210 [8] = assay: In vivo antitumor activity against L1210 leukemia in 5 mice measured as Increased life span at 20 mg/kg.; assay type: functional; conditions: Mus musculus
L1210 [9] = assay: In vivo antitumor activity against L1210 leukemia in 15 mice measured as T/C values(days); T/C = 15/9; assay type: functional, Mus musculus
Mus musculus [10] = assay: Average weight of the mouse after treating with 40 mg/kg dose for 1 day.; assay type: functional; design: unit not given here
L1210 [11] = assay: In vivo antitumor activity against L1210 leukemia in 18 mice measured as T/C values(days); T/C = 18/9; assay type: functional, Mus musculus
L1210 [12] = assay: In vivo antitumor activity against L1210 leukemia in 5 mice measured as median survival range at 20 mg/kg; Value ranges from(12-13); assay type: functional, Mus musculus
Mus musculus [13] = assay: Average weight of the mouse after treating with 80 mg/kg dose for 1 day.; assay type: functional; design: unit not given here
L1210 [14] = assay: In vivo antitumor activity against L1210 leukemia in 5 mice measured as Increased life span at 80 mg/kg.; assay type: functional; conditions: Mus musculus
L1210 [15] = assay: In vivo antitumor activity against L1210 leukemia in 13 mice measured as T/C values(days); T/C = 13/9; assay type: functional, Mus musculus
L1210 [16] = assay: In vivo antitumor activity against L1210 leukemia in 5 mice measured as median survival range at 40 mg/kg; Value ranges from(12-18); assay type: functional, Mus musculus
L1210 [17] = assay: In vivo antitumor activity against L1210 leukemia in 19 mice measured as T/C values(days); T/C = 19/9; assay type: functional, Mus musculus
L1210 [18] = assay: In vivo antitumor activity against L1210 leukemia in 5 mice measured as median survival range at 80 mg/kg; Value ranges from(12-23).; assay type: functional, Mus musculus
L1210 [19] = assay: In vivo anti tumor activity against L1210 leukemia in 19 mice measured as T/C values; T/C = 19/9; assay type: functional, Mus musculus
Mus musculus [20] = assay: Average weight change in mouse after treating with 20 mg/kg dose for 7 days.; assay type: functional; design: unit not given beside the values
L1210 [21] = assay: In vivo anti tumor activity against L1210 leukemia in 13 mice measured as T/C values at 20 mg/kg; T/C = 13/9; assay type: functional, Mus musculus
L1210 [22] = assay: In vivo antitumor activity against L1210 leukemia in 5 mice measured as median survival range at 40 mg/kg; Value ranges from (16-19); assay type: functional, Mus musculus
L1210 [23] = assay: In vivo anti tumor activity against L1210 leukemia in 5 mice measured as Increased life span at 20 mg/kg.; assay type: functional; conditions: Mus musculus
L1210 [24] = assay: In vivo antitumor activity against L1210 leukemia in 5 mice measured as median survival range at 20 mg/kg; Value ranges from (11-17); assay type: functional, Mus musculus
Mus musculus [25] = assay: Average weight change in mouse after treating with 40 mg/kg dose for 7 days.; assay type: functional
L1210 [26] = assay: In vivo anti tumor activity against L1210 leukemia in 5 mice measured as Increased life span at 40 mg/kg.; assay type: functional; conditions: Mus musculus
L1210 [27] = assay: In vivo anti tumor activity against L1210 leukemia in 10 mice measured as Increased life span at 30 mg/kg.; assay type: functional; conditions: Mus musculus
Mus musculus [28] = assay: Average weight of the mouse after treating with 60 mg/kg dose for 7 days.; assay type: functional
Mus musculus [29] = assay: Average weight of the mouse after treating with 15 mg/kg dose for 7 days.; assay type: functional
L1210 [30] = assay: In vivo antitumor activity against L1210 leukemia in 16 mice measured as T/C values; T/C = 16/9; assay type: functional, Mus musculus
L1210 [31] = assay: In vivo anti tumor activity against L1210 leukemia in 5 mice measured as Increased life span.; assay type: functional, Mus musculus
Mus musculus [32] = assay: Average weight of the mouse after treating with 30 mg/kg dose for 7 days.; assay type: functional
Mus musculus [33] = assay: Average weight of the mouse after treating with 30 mg/kg dose for 1 day.; assay type: functional
Mus musculus [34] = assay: Average weight of the mouse after treating with 15 mg/kg dose for 1 day.; assay type: functional
L1210 [35] = assay: In vivo anti tumor activity against L1210 leukemia in 10 mice measured as median survival range at 60 mg/kg; Value ranges from(7-24); assay type: functional, Mus musculus
L1210 [36] = assay: In vivo antitumor activity against L1210 leukemia in 10 mice measured as median survival range at 15 mg/kg; Value ranges from(15-20); assay type: functional, Mus musculus
Mus musculus [37] = assay: Average weight of the mouse after treating with 60 mg/kg dose for 1 day.; assay type: functional
L1210 [38] = assay: In vivo anti tumor activity against L1210 leukemia in 10 mice measured as median survival range at 30 mg/kg; Value ranges from(11-17).; assay type: functional, Mus musculus
L1210 [39] = assay: In vivo anti tumor activity against L1210 leukemia in 10 mice measured as Increased life span at 60 mg/kg.; assay type: functional; conditions: Mus musculus
L1210 [40] = assay: In vivo anti tumor activity against L1210 leukemia in 19 mice measured as median survival range at 60 mg/kg; Value ranges from(9-28); assay type: functional, Mus musculus
L1210 [41] = assay: In vivo antitumor activity against L1210 leukemia in 23 mice measured as Increased life span.; assay type: functional, Mus musculus
L1210 [42] = assay: (§1) In vivo antitumor activity against L1210 leukemia in 19 mice measured as Increased life span.; assay type: functional, Mus musculus
L1210 [43] = assay: In vivo antitumor activity against L1210 leukemia in 19 mice measured as median survival range at 15 mg/kg; Value ranges from(13-22); assay type: functional, Mus musculus
L1210 [44] = assay: In vivo antitumor activity against L1210 leukemia in 16 mice measured as T/C values(days); T/C = 16/9; assay type: functional, Mus musculus
L1210 [45] = assay: In vivo antitumor activity against L1210 leukemia in 17 mice measured as T/C values(days); T/C = 17/9; assay type: functional, Mus musculus
L1210 [46] = assay: In vivo anti tumor activity against L1210 leukemia in 23 mice measured as median survival range at 30 mg/kg; Value ranges from(14-23).; assay type: functional, Mus musculus
L1210 [47] = assay: as §1; assay type: functional, Mus musculus; remark: listed apart in the source

## CC(C)CCOC(=O)CCC(NC(=O)c1cc(Cl)c(N(C)Cc2cnc3nc(N)nc(N)c3n2)c(Cl)c1)C(=O)OCCC(C)C (stereo not given)
L1210 [1]
  ILS at 40 mg/kg: 67%
Mus musculus [2]
  Weight change: 1
Mus musculus [3]
  Weight change: 0.1
Mus musculus [4]
  Weight change: 2.7
L1210 [5]
  Range: 19
Mus musculus [6]
  Average weight: 22.1
L1210 [7]
  Range: 26
L1210 [8]
  ILS at 20 mg/kg: 44%
L1210 [9]
  T/C: 9
Mus musculus [10]
  Average weight: 21.2
L1210 [11]
  T/C: 9
L1210 [12]
  Range: 13
Mus musculus [13]
  Average weight: 20.8
L1210 [14]
  ILS at 80 mg/kg: 100%
L1210 [15]
  T/C: 9

## CC(C)COC(=O)CCC(NC(=O)c1cc(Cl)c(N(C)Cc2cnc3nc(N)nc(N)c3n2)c(Cl)c1)C(=O)OCC(C)C (stereo not given)
L1210 [1]
  ILS at 40 mg/kg: 44%
Mus musculus [2]
  Weight change: 1.3
Mus musculus [3]
  Weight change: 0.1
Mus musculus [10]
  Average weight: 21.4
L1210 [16]
  Range: 18
L1210 [17]
  T/C: 9
Mus musculus [13]
  Average weight: 19.8
L1210 [18]
  Range: 23
L1210 [14]
  ILS at 80 mg/kg: 111%
L1210 [15]
  T/C: 9

## CCCOC(=O)CCC(NC(=O)c1ccc(N(C)Cc2cnc3nc(N)nc(N)c3n2)cc1)C(=O)OCCC (stereo not given)
L1210 [19]
  T/C: 19
Mus musculus [20]
  Weight change: 2.1
Mus musculus [6]
  Average weight: 21.4
Mus musculus [10]
  Average weight: 21.1
L1210 [21]
  T/C: 13
L1210 [22]
  Range: 16
L1210 [23]
  ILS at 20 mg/kg: 44%
L1210 [24]
  Range: 17
Mus musculus [25]
  Weight change: 0.3
L1210 [26]
  ILS at 40 mg/kg: 100%

## CCCCOC(=O)CCC(NC(=O)c1ccc(N(C)Cc2cnc3nc(N)nc(N)c3n2)cc1)C(=O)OCCCC (stereo not given)
L1210 [27]
  ILS at 30 mg/kg: 66%
Mus musculus [28]
  Weight change: 5.1
Mus musculus [29]
  Weight change: 4.2
L1210 [30]
  T/C: 9
L1210 [31]
  ILS: 77%
Mus musculus [32]
  Weight change: 4.1
Mus musculus [33]
  Average weight: 26.1
Mus musculus [34]
  Average weight: 25.3
L1210 [35]
  Range: 24
L1210 [36]
  Range: 20
Mus musculus [37]
  Average weight: 24.9
L1210 [38]
  Range: 17
L1210 [39]
  ILS at 60 mg/kg: 88%

## CN(Cc1cnc2nc(N)nc(N)c2n1)c1ccc(C(=O)N[C@@H](CCC(=O)O)C(=O)O)cc1 [METHOTREXATE]
L1210 [40]
  Range: 28
L1210 [41]
  ILS: 88%
Mus musculus [28]
  Weight change: 1.3
Mus musculus [29]
  Weight change: 2.1
L1210 [42]
  ILS: 77%
Mus musculus [32]
  Weight change: 0.6
L1210 [43]
  Range: 22
L1210 [44]
  T/C: 9
L1210 [11]
  T/C: 9
L1210 [45]
  T/C: 9
L1210 [46]
  Range: 23
L1210 [47]
  ILS: 100%
